In the supplement of paper PMC10307832 one finds relative viability data, which are given here for eleven cell lines.

Holding throughout (test): relative viability (nuclei count vs DMSO), 5 days (fraction); higher = more cells survive
Compound in assay [1]: CC1=C(C=C(C=C1)NC(=O)C2=CC(=CC=C2)C(C)(C)C#N)NC3=CC4=C(C=C3)N=CN(C4=O)C [AZ628] + Cc1nc(Nc2ncc(C(=O)Nc3c(C)cccc3Cl)s2)cc(N2CCN(CCO)CC2)n1 [Dasatinib] (partner 0.075 µM)
Summed up: (§1)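 Each reported value is a median over duplicate plates. It expresses relative viability: treated-well nuclei count divided by vehicle-well nuclei count. Lung cancer cell lines in 1536-well plates were dosed by pin tool a day after seeding, alone with one drug or with a fixed anchor-drug dose plus five library-drug doses (not always all listed) in √10 steps, and nuclei were counted after 5 days.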

Compound in assay [2]: CC1=C(C=C(C=C1)NC(=O)C2=CC(=CC=C2)C(C)(C)C#N)NC3=CC4=C(C=C3)N=CN(C4=O)C [AZ628] + N=C(N)NC(=N)NCCc1ccccc1 [Phenformin] (partner 250 µM)
Summed up:
as §1

Compound in assay [3]: C[As](C)SC[C@H](NC(=O)CC[C@H](N)C(=O)O)C(=O)NCC(=O)O [Darinaparsin] + Nc1ncn([C@H]2C[C@H](O)[C@@H](CO)O2)c(=O)n1 [Decitabine] (partner 2 µM)
The method, boiled down:
as §1

Compound in assay [4]: CC1=C(C=C(C=C1)NC(=O)C2=CC(=CC=C2)C(C)(C)C#N)NC3=CC4=C(C=C3)N=CN(C4=O)C [AZ628] + NC(=O)Nc1cc(-c2cccc(F)c2)sc1C(=O)N[C@H]1CCCNC1 [AZD7762] (partner 0.2 µM)
The method, boiled down:
as §1

As for UMC-11, the relative viability was determined as 0.659 in assay [1] (first compound 0.08 µM); 0.448 in assay [1] (first compound 0.253 µM); 0.474 in assay [1] (first compound 0.8 µM); 0.5 in assay [1] (first compound 2.53 µM); 0.47 in assay [1] (first compound 8 µM); 0.322 in assay [2] (first compound 0.08 µM). The relative viability in assay [2] (first compound 0.253 µM) was found to be 0.268; in assay [2] (first compound 0.8 µM), 0.339; in assay [2] (first compound 2.53 µM), 0.294; in assay [2] (first compound 8 µM), 0.255; in assay [3] (first compound 0.08 µM), 0.563; in assay [3] (first compound 0.8 µM), 0.574. The relative viability was found to be 0.636 in assay [3] (first compound 2.53 µM) and 0.677 in assay [3] (first compound 8 µM).
In the case of NCI-H520, the relative viability worked out at 0.254 in assay [1] (first compound 0.08 µM); 0.189 in assay [1] (first compound 0.253 µM); 0.325 in assay [1] (first compound 0.8 µM); 0.18 in assay [1] (first compound 2.53 µM); 0.215 in assay [1] (first compound 8 µM); 0.583 in assay [2] (first compound 0.08 µM). In addition, the relative viability in assay [2] (first compound 0.253 µM) was 0.452; in assay [2] (first compound 0.8 µM) it was 0.64; in assay [2] (first compound 2.53 µM) it was 0.476; in assay [2] (first compound 8 µM), 0.398; in assay [3] (first compound 0.08 µM) it was 0.528; in assay [3] (first compound 0.8 µM) it was 0.55. The results for the relative viability in assay [3] (first compound 2.53 µM) and in assay [3] (first compound 8 µM) were 0.472 and 0.552, respectively.
Consider COR-L23, for which the relative viability in assay [1] (first compound 0.08 µM) amounted to 0.499; in assay [1] (first compound 0.253 µM), 0.465; in assay [1] (first compound 0.8 µM) it was 0.493; in assay [1] (first compound 2.53 µM) it was 0.447; in assay [1] (first compound 8 µM), 0.347; in assay [2] (first compound 0.08 µM), 0.54. For the same cell line, the relative viability is 0.476 in assay [2] (first compound 0.253 µM); 0.433 in assay [2] (first compound 0.8 µM); 0.445 in assay [2] (first compound 2.53 µM); 0.333 in assay [2] (first compound 8 µM); 0.496 in assay [3] (first compound 0.08 µM); 0.394 in assay [3] (first compound 0.8 µM). Besides, the relative viability came to 0.348 in assay [3] (first compound 2.53 µM) and 0.496 in assay [3] (first compound 8 µM).
With COR-L 105, the relative viability turned out to be 0.358 in assay [1] (first compound 0.08 µM); 0.419 in assay [1] (first compound 0.253 µM); 0.285 in assay [1] (first compound 0.8 µM); 0.312 in assay [1] (first compound 2.53 µM); 0.244 in assay [1] (first compound 8 µM); 0.541 in assay [2] (first compound 0.08 µM). Also, the relative viability was 0.483 in assay [2] (first compound 0.253 µM); 0.4 in assay [2] (first compound 0.8 µM); 0.488 in assay [2] (first compound 2.53 µM); 0.323 in assay [2] (first compound 8 µM); 0.642 in assay [3] (first compound 0.08 µM); 0.711 in assay [3] (first compound 0.8 µM). The relative viability was 0.621 in assay [3] (first compound 2.53 µM) and 0.666 in assay [3] (first compound 8 µM).
Regarding NCI-H1648, the relative viability turned out to be 0.871 in assay [4] (first compound 0.08 µM); 0.579 in assay [4] (first compound 0.253 µM); 0.524 in assay [4] (first compound 0.8 µM); 0.494 in assay [4] (first compound 2.53 µM); 0.587 in assay [4] (first compound 8 µM); 0.474 in assay [3] (first compound 0.8 µM). For the same cell line, the relative viability in assay [3] (first compound 8 µM) was found to be 0.494.
Regarding NCI-H1650, the relative viability amounted to 0.319 in assay [1] (first compound 0.08 µM); 0.366 in assay [1] (first compound 0.253 µM); 0.318 in assay [1] (first compound 0.8 µM); 0.296 in assay [1] (first compound 2.53 µM); 0.249 in assay [1] (first compound 8 µM); 0.537 in assay [2] (first compound 0.08 µM). In addition, the relative viability turned out to be 0.403 in assay [2] (first compound 0.253 µM); 0.33 in assay [2] (first compound 0.8 µM); 0.333 in assay [2] (first compound 2.53 µM); 0.335 in assay [2] (first compound 8 µM); 0.325 in assay [3] (first compound 0.08 µM); 0.41 in assay [3] (first compound 0.8 µM). Further, the results for the relative viability in assay [3] (first compound 2.53 µM) and in assay [3] (first compound 8 µM) were 0.397 and 0.359, respectively.
On to NCI-H1563, for which the relative viability in assay [1] (first compound 0.08 µM) worked out at 0.477; in assay [1] (first compound 0.253 µM), 0.436; in assay [1] (first compound 0.8 µM) it was 0.469; in assay [1] (first compound 2.53 µM) it was 0.487; in assay [1] (first compound 8 µM) it was 0.475; in assay [2] (first compound 0.08 µM), 0.694. The relative viability was found to be 0.661 in assay [2] (first compound 0.253 µM), 0.672 in assay [2] (first compound 0.8 µM), 0.654 in assay [2] (first compound 2.53 µM) and 0.679 in assay [2] (first compound 8 µM).
With NCI-H1703, the relative viability in assay [4] (first compound 0.08 µM) was 0.118; in assay [4] (first compound 0.253 µM), 0.124; in assay [4] (first compound 0.8 µM), 0.134; in assay [4] (first compound 2.53 µM), 0.139; in assay [4] (first compound 8 µM), 0.0724.
For the cell line NCI-H1623, the relative viability in assay [1] (first compound 0.08 µM) was 0.554; in assay [1] (first compound 0.253 µM) it was 0.447; in assay [1] (first compound 0.8 µM) it was 0.301; in assay [1] (first compound 2.53 µM), 0.493; in assay [1] (first compound 8 µM), 0.374; in assay [2] (first compound 0.08 µM), 0.6. Also, the relative viability in assay [2] (first compound 0.253 µM) worked out at 0.524; in assay [2] (first compound 0.8 µM) it was 0.382; in assay [2] (first compound 2.53 µM) it was 0.505; in assay [2] (first compound 8 µM) it was 0.437.
For A549, the relative viability in assay [2] (first compound 0.08 µM) was found to be 0.19; in assay [2] (first compound 0.253 µM), 0.161; in assay [2] (first compound 0.8 µM), 0.136; in assay [2] (first compound 2.53 µM), 0.135; in assay [2] (first compound 8 µM) it was 0.141; in assay [3] (first compound 0.8 µM), 0.209. For the same cell line, the relative viability in assay [3] (first compound 2.53 µM) was 0.229; in assay [3] (first compound 8 µM), 0.291.
Regarding CAL-12T, the relative viability in assay [1] (first compound 0.08 µM) was determined as 0.385; in assay [1] (first compound 0.253 µM) it was 0.336; in assay [1] (first compound 0.8 µM), 0.255; in assay [1] (first compound 2.53 µM), 0.271; in assay [1] (first compound 8 µM), 0.278; in assay [2] (first compound 0.08 µM), 0.553. Further, the relative viability is 0.492 in assay [2] (first compound 0.253 µM); 0.335 in assay [2] (first compound 0.8 µM); 0.414 in assay [2] (first compound 2.53 µM); 0.336 in assay [2] (first compound 8 µM); 0.806 in assay [4] (first compound 0.08 µM); 0.622 in assay [4] (first compound 0.253 µM). Moreover, the values for the relative viability in assay [4] (first compound 0.8 µM), in assay [4] (first compound 2.53 µM) and in assay [4] (first compound 8 µM) were 0.561, 0.656 and 0.501, respectively.
